Source: patent US10577362B2, “Substituted 2, 4-diamino-quinoline derivatives for use in the treatment of proliferative diseases” (GENOSCIENCE PHARMA, priority 2016, dated 2020)

Key:
[1] = test system: MOLM-14 (acute myeloid leukemia) cell line; assay: CellTiter-Glo luminescent cell viability assay, MOLM-14; assay type: cell-based, human; settings: Homo sapiens; for viability at 4 µM: MOLM-14, compound at 4 μM; for viability at 4 µM / viability at 10 µM: 72 h; for viability at 10 µM: MOLM-14, compound at 10 μM; for EC50: MOLM-14 cell line, 72 h incubation, CellTiter-Glo, read-out: EC50, growth inhibition of MOLM-14
Outline: (§1)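 72 h compound exposure, 37 °C, 5% CO2, 10% FBS medium; ATP luminescence read after 30 min RT equilibration. Viability as % of H2O/DMSO diluent control; EC50 = dose giving 50% of control signal. Duplicate points minimum.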

[2] = test system: A375 (malignant melanoma) cell line; assay: CellTiter-Glo luminescent cell viability assay, A375; assay type: cell-based, human; settings: Homo sapiens, A-375; for viability at 4 µM: A375, compound at 4 μM; for viability at 4 µM / viability at 10 µM: 72 h; for viability at 10 µM: A375, compound at 10 μM; for EC50: A375 cell line, 72 h incubation, CellTiter-Glo, read-out: EC50, growth inhibition of A375
Outline: (§2)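 In a 72 h viability assay, compound-treated cells were compared against matched H2O or DMSO diluent controls by luminescence, points in at least duplicate.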

[3] = test system: HCT-116 (colorectal carcinoma) cell line; assay: CellTiter-Glo luminescent cell viability assay, HCT-116; assay type: cell-based, human; settings: Homo sapiens; for viability at 4 µM: HCT-116, compound at 4 μM; for viability at 4 µM / viability at 10 µM: 72 h; for viability at 10 µM: HCT-116, compound at 10 μM; for EC50: HCT-116 cell line, 72 h incubation, CellTiter-Glo, read-out: EC50, growth inhibition of HCT-116
Outline: as §2

[4] = test system: Huh7 (hepatocellular carcinoma) cell line; assay: CellTiter-Glo luminescent cell viability assay, Huh7; assay type: cell-based, human; settings: Homo sapiens, Huh-7; for viability at 4 µM: Huh7, compound at 4 μM; for viability at 4 µM / viability at 10 µM: 72 h; for viability at 10 µM: Huh7, compound at 10 μM; for EC50: Huh7 cell line, 72 h incubation, CellTiter-Glo, read-out: EC50, growth inhibition of Huh7
Outline: as §1

[5] = test system: 786-O (renal adenocarcinoma) cell line; assay: CellTiter-Glo luminescent cell viability assay, 786-O; assay type: cell-based, human; settings: Homo sapiens, 786-0; for EC50: 786-O cell line, 72 h incubation, CellTiter-Glo, read-out: EC50, growth inhibition of 786-O; for viability at 4 µM / viability at 10 µM: 786-O, 72 h; for viability at 4 µM: compound at 4 μM; for viability at 10 µM: compound at 10 μM
Outline: as §2

[6] = test system: HepG2 (hepatocellular carcinoma) cell line; assay: CellTiter-Glo luminescent cell viability assay, HepG2; assay type: cell-based, human; settings: Homo sapiens; for viability at 4 µM / viability at 10 µM: HepG2, HepG, 72 h; for viability at 4 µM: compound at 4 μM; for viability at 10 µM: compound at 10 μM; for EC50: HepG2 cell line, 72 h incubation, CellTiter-Glo, read-out: EC50, growth inhibition of HepG2
Outline: as §1

[7] = test system: PANC-1 (prancreatic carcinoma) cell line; assay: CellTiter-Glo luminescent cell viability assay, PANC-1; assay type: cell-based; settings: Homo sapiens; for viability at 4 µM: PANC-1, 4 μM; for viability at 4 µM / viability at 10 µM: 72 h, % of signal of diluent-treated cultures; for viability at 10 µM: PANC-1, 10 μM; for EC50: PANC-1 cell line, 72 h incubation, CellTiter-Glo, read-out: EC50 (growth inhibition assay of PANC-1 cell line)
Outline: as §1

Structure (SMILES) | viability at 4 µM [1] [%] | viability at 10 µM [1] [%] | EC50 [1] [µM] | viability at 4 µM [2] [%] | viability at 10 µM [2] [%] | EC50 [2] [µM] | viability at 4 µM [3] [%] | viability at 10 µM [3] [%] | EC50 [3] [µM] | viability at 4 µM [4] [%] | viability at 10 µM [4] [%] | EC50 [4] [µM] | EC50 [5] [µM] | viability at 4 µM [5] [%] | viability at 10 µM [5] [%] | viability at 4 µM [6] [%] | viability at 10 µM [6] [%] | EC50 [6] [µM] | viability at 4 µM [7] [%] | viability at 10 µM [7] [%] | other results
N#Cc1c(NCc2ccc(Cl)cc2)nc2ccccc2c1N1CCC(NC2CCOCC2)CC1 [Compound 3180CN, 2-(4-chlorobenzylamino)-3-cyano-4-{4-[(tetrahydro-2H-pyran-4-yl)amino]piperidin-1-yl}quinoline] | 92.3 | 22.7 | 5 to 10 | 88.6 | 0.3 | 5 to 10 | 59.5 | 0.2 | 5 to 10 | 76.5 | 0.4 | 5 to 10 | 5 to 10 | 69.7 | 0.4 | 78.4 | 0.4 | 5 to 10 | 94.9 | 58.9 | EC50 [7]: 5 to 10 µM
CN1CCC(NC2CCN(c3c(C#N)c(NCc4ccc(Cl)cc4)nc4ccccc34)CC2)CC1 [Compound 3182CN, 2-(4-chlorobenzylamino)-3-cyano-4-{4-[(1-methylpiperidin-4-yl)amino]piperidin-1-yl}quinoline] | 0.6 | 0.4 | 0.5 to 5 | 0.5 | 0.4 | 0.5 to 5 | 0.5 | 0.3 | 0.5 to 5 | 0.6 | 0.4 | 0.5 to 5 | 0.05 to 0.5 | 0.6 | 0.4 | 0.5 | 0.3 | 0.5 to 5 | 0.8 | 0.5 | 
CN(C)C1CCN(c2c(C#N)c(NCc3ccc(Cl)cc3)nc3ccccc23)CC1 [Compound 3184CN, 2-(4-chlorobenzylamino)-3-cyano-4-[4-(dimethylamino)piperidin-1-yl]quinoline] | 71.8 | 0.6 | 0.5 to 5 | 59.5 | 0.5 | 0.5 to 5 | 60.5 | 0.5 | 0.5 to 5 | 77.4 | 0.6 | 5 to 10 | 0.5 to 5 | 54.1 | 0.7 | 72.9 | 0.7 | 0.5 to 5 | 90.7 | 24.1 | EC50 [7]: 5 to 10 µM
CN1CCN(C2CCN(c3c(C#N)c(NCc4ccc(Cl)cc4)nc4ccccc34)CC2)CC1 [Compound 3188CN, 2-(4-chlorobenzylamino)-3-cyano-4-[4-(4-methylpiperazin-1-yl)piperidin-1-yl]quinoline] | 108 | 0.7 | 0.5 to 5 | 52.8 | 0.4 | 0.5 to 5 | 42.9 | 0.5 | 0.5 to 5 | 85.2 | 0.6 | 0.5 to 5 | 0.5 to 5 | 64 | 0.5 | 82.7 | 0.6 | 0.5 to 5 | 91.6 | 3.5 | EC50 [7]: 5 to 10 µM
N#Cc1c(NCc2ccc(Cl)cc2)nc2ccccc2c1N1CCC(N)C1 (stereo not shown) [Compound 3190CN, 2-(4-chloro-benzylamino)-3-cyano-4-[3-amino-pyrrolidin-1-yl]quinoline] | 78.1 | 2.1 | 5 to 10 | 87.3 | 0.8 | 5 to 10 | 75.2 | 0.4 | 5 to 10 | 92.7 | 1.3 | 5 to 10 | 5 to 10 | 90.6 | 1.6 | 95.5 | 16 | 5 to 10 | 93.7 | 56.1 | 
